{
  "source": "patent US6544961B1",
  "about": "“Combinations comprising VX478, zidovudine, FTC and/or 3TC for use in the treatments of HIV” (SmithKline Beecham Corporation, priority 1996, dated 2003)",
  "origin": "cited, not measured here",
  "tested_on": "HIV",
  "conditions": "European Patent Specification No. 384536",
  "data": [
    {"smiles": "Nc1ccn(C2CSC(CO)O2)c(=O)n1", "note": "(racemic) [BCH-189, 4-amino-1-(2-hydroxymethyl-1,3-oxathiolan-5-yl)-(1H)-pyrimidin-2-one]", "values": [
      {"measurement": "anti-HIV activity", "result": "have been found to have anti-HIV activity"}
    ]}
  ]
}
